{
  "source": "patent US7951751B2",
  "about": "“Synergistic, crop plant-compatible herbicidal compositions comprising herbicides from the group of the benzoylpyrazoles” (Bayer Crop Science AG, priority 2005, dated 2011)",
  "key": {"STEME": {"system": "STEME", "assay": "Herbicidal post-emergence action, greenhouse pot test, visual rating", "type": "in vivo", "conditions": "rated 3 to 4 weeks after treatment", "method": "(§1) Seeds of monocotyledonous and dicotyledonous weed and crop plants are place into sandy loam in wood fiber pots or in plastic pots, covered with soil and cultivated in a greenhouse, including during the vegetation period outdoors outside of the greenhouse, under good growth conditions. 2-3 weeks after sowing, the test plants are treated at the one- to three-leaf stage. The test compounds, formulated as wettable powders (WP) or liquid (EC) are, in various dosages with a water application rate of 300 I/ha (converted), with added wetting agent (0.2 to 0.3%), sprayed onto the plants and the surface of the soil. 3 to 4 weeks after the treatment of the test plants, the effect of the preparations is rated visually in comparison to untreated controls (herbicidal effect in percent (%): 100% effect=plants have died, 0% effect=like control plants).\nIf it is additionally to be tested as to whether safeners can improve the plant compatibility of test substances in the case of crop plants, the following options are used for applying the safener: • seeds of the crop plants are, before sowing, dressed with the safener substance (the amount of safener is stated in percent, based on the weight of the seed) • before the application of the test substances, the crop plants are sprayed with the safener at a certain application rate per hectare (usually 1 day before the application of the test substances) • the safener is applied together with the test substance as a tank mix (the amount of safener is stated in g/ha or as a ratio, based on the herbicide).\nBy comparing the effect of the test substances on crop plants without or with safener treatment, it is possible to assess the effect of the safener substance."}, "summer wheat": {"system": "summer wheat", "assay": "Crop plant compatibility (damage) post-emergence, with and without safener", "type": "in vivo", "method": "as §1, with “plants). […]” for “plants).”"}},
  "data": [
    {"compound": "O=C(Nc1ccc(F)cc1F)c1cccnc1Oc1cccc(C(F)(F)F)c1", "note": "[Component B4.1, diflufenican]", "values": [
      {"measurement": "Activity against STEME", "setting": "STEME; 75 g of a.i./ha", "result": 70, "unit": "%"}
    ]},
    {"compound": "CCOC(=O)C1=NN(c2ccc(Cl)cc2Cl)C(C)(C(=O)OCC)C1", "note": "(stereo not drawn) [Component C1, mefenpyr-diethyl]", "values": [
      {"measurement": "Activity against STEME", "setting": "STEME; 9.4 g of a.i./ha", "result": 0, "unit": "%"}
    ]},
    {"compound": "N#Cc1cc(Br)c(O)c(Br)c1", "note": "[Component B1.2, bromoxynil]", "values": [
      {"measurement": "Activity against STEME", "setting": "STEME; 140 g of a.i./ha", "result": 70, "unit": "%"},
      {"measurement": "Damage of summer wheat", "setting": "summer wheat; 1680 g of a.i./ha", "result": 25, "unit": "%"}
    ]},
    {"compound": "Cc1nn(C)c(O)c1C(=O)c1ccc(C(F)(F)F)cc1S(C)(=O)=O", "note": "[A]", "values": [
      {"measurement": "Activity against STEME", "setting": "STEME; 37.5 g of a.i./ha, 100% = plants have died", "result": 50, "unit": "%"},
      {"measurement": "Damage of summer wheat", "setting": "summer wheat; 300 g of a.i./ha", "result": 15, "unit": "%"}
    ]}
  ]
}
